Reference: article PMC7571065, “Design, Synthesis, In Vitro and In Silico Studies of New Thiazolylhydrazine-Piperazine Derivatives as Selective MAO-A Inhibitors” (Molecules, 2020)
“Also recorded” adds a separate entry of the source. Like-named read-outs stand apart in the source and are kept apart here.

What was measured:
MAO-A [1] = molecular target: T1, MAO-A (Homo sapiens, UniProt P21397); test: In vitro fluorometric MAO-A inhibition assay (Ampliflu Red, tyramine); assay type: biochemical; settings: for inhibition at 10 µM / inhibition at 1 µM / inhibition at 0.1 µM / inhibition at 0.01 µM / inhibition at 0.001 µM: read-out: MAO-A % Inhibition; for IC50: mean ± SD, read-out: IC50 against MAO-A
T1 construct: purchased Sigma-Aldrich (Steinheim, Germany)
T1 sequence (P21397 1-527): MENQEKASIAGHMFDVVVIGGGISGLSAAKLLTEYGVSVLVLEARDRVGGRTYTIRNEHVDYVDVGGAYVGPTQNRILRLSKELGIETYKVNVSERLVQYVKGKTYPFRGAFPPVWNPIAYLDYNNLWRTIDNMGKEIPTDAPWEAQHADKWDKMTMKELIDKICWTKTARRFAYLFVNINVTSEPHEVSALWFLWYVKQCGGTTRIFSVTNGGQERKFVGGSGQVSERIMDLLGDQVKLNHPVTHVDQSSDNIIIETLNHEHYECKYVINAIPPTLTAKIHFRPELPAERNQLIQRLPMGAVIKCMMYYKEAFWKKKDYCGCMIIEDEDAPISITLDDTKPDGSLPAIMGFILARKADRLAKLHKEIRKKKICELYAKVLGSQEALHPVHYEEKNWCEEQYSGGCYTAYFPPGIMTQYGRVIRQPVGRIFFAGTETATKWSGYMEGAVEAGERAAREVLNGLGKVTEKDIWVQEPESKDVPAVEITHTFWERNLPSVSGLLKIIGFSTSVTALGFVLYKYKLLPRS

recombinant MAO-B = molecular target: T2, recombinant MAO-B (Homo sapiens, UniProt P27338); test: In vitro fluorometric MAO-B inhibition assay (Ampliflu Red, tyramine); assay type: biochemical
T2 construct: purchased Sigma-Aldrich (Steinheim, Germany)
T2 sequence (P27338 1-520): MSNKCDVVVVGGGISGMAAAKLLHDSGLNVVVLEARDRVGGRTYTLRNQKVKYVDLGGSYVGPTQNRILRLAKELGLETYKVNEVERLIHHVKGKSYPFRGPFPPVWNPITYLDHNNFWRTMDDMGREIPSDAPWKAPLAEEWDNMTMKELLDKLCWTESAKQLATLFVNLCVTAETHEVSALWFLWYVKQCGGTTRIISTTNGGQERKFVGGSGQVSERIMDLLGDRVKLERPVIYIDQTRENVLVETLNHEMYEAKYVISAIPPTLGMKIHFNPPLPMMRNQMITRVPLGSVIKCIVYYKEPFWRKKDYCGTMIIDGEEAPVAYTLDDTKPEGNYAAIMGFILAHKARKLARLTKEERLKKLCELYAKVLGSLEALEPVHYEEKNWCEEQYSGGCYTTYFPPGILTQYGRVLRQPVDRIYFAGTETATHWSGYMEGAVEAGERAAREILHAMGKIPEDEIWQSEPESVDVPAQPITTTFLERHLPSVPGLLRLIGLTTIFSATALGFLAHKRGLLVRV

MAO-A [2] = molecular target: T1, MAO-A; test: Enzyme kinetic studies (Lineweaver-Burk and secondary plot); assay type: biochemical
Protocol: The same materials were used in the MAO inhibition assay. […] All processes were evaluated in quadruplicate. The results were analyzed by means of Microsoft Office Excel 2013 as Lineweaver-Burk diagrams. […] of the Lineweaver-Burk plots were replotted versus the inhibitor concentration, and the Ki values were determined from the x-axis intercept as Ki.
The MAO-A inhibition mechanism was defined by conducting enzyme kinetics experiments utilizing a protocol close to that of the MAO inhibition assay. […] To estimate the type of inhibition of this compound, linear Lineweaver-Burk graphs were used. The velocity curves of the substrates were reported in the absence and presence of compound 3e. In each case, the initial velocity measurements were collected at various concentrations of substrates (tyramine) varying from 20 μM to 0.625 μM.
According to the Lineweaver-Burk plots, the type of inhibition consists of two general classes: reversible and irreversible. Mixed-type, uncompetitive, competitive and noncompetitive inhibition types are included in the reversible inhibition. […] Competitive inhibition is seen if the lines intersect on the y-axis, and the slopes and x-intercepts are different. On the contrary, non-competitive inhibition has the opposite result: the plotted lines have the same x-intercept but there are diverse slopes and y-intercepts.

Cytotoxicity MTT assay = assay type: cell-based; settings: mouse, NIH/3T3 mouse embryonic fibroblast cells, tested 1 mM to 0.000316 mM, read-out: IC50 NIH/3T3 Cell Line
Protocol: The NIH/3T3 mouse embryonic fibroblast cell line (ATCC® CRL-1658 ™, London, UK) was used for cytotoxicity assays. The incubation period of NIH/3T3 cells was based on the supplier’s recommendation. NIH/3T3 cells were seeded at 1 × 10^4 cells into each well of 96-well plates. MTT assay was carried out in accordance with the standards previously described manner.

Row | inhibition at 1000 µM (MAO-A [1]; 10^−3 M) [%] | inhibition at 100 µM (MAO-A [1]; 10^−4 M) [%] | inhibition at 1000 µM (recombinant MAO-B; 10^−3 M) [%] | inhibition at 100 µM (recombinant MAO-B; 10^−4 M) [%] | melting point [°C] | SMILES | also measured
1 | 68.1 ± 1.03 | 34.3 ± 0.851 | 32.3 ± 0.985 | 25 ± 0.721 | 254 to 255 | CN1CCN(c2ccc(C=NNc3nc(-c4ccccc4)cs3)cc2)CC1 [Compound 3a, 2-{2-[4-(4-Methylpiperazin-1-yl)benzylidene]hydrazinyl}-4-phenylthiazole] | 
2 | 70.8 ± 1.32 | 37.9 ± 0.796 | 34.4 ± 0.824 | 22.1 ± 0.796 | 253 to 255 | CN1CCN(c2ccc(C=NNc3nc(-c4ccc(Br)cc4)cs3)cc2)CC1 [Compound 3h, 2-{2-[4-(4-Methylpiperazin-1-yl)benzylidene]hydrazinyl}-4-(4-bromophenyl)thiazole] | 
3 | 66.2 ± 0.972 | 41.5 ± 0.87 | 30.6 ± 0.836 | 21.5 ± 0.809 | 275 to 276 | CN1CCN(c2ccc(C=NNc3nc(-c4ccc(-c5ccccc5)cc4)cs3)cc2)CC1 [Compound 3i, 2-{2-[4-(4-Methylpiperazin-1-yl)benzylidene]hydrazinyl}-4-([1,1’-biphenyl]-4-yl)thiazole] | 
4 | 71 ± 1.11 | 31.5 ± 0.732 | 34.6 ± 0.886 | 27.6 ± 0.649 | 252 to 254 | Cc1ccc(-c2csc(NN=Cc3ccc(N4CCN(C)CC4)cc3)n2)cc1 [Compound 3b, 2-{2-[4-(4-Methylpiperazin-1-yl)benzylidene]hydrazinyl}-4-(4-methylphenyl)thiazole] | 
5 | 73.7 ± 1.11 | 33.5 ± 0.833 | 31.2 ± 0.789 | 24 ± 0.623 | 249 to 250 | CN1CCN(c2ccc(C=NNc3nc(-c4ccc(Cl)cc4)cs3)cc2)CC1 [Compound 3g, 2-{2-[4-(4-Methylpiperazin-1-yl)benzylidene]hydrazinyl}-4-(4-chlorophenyl)thiazole] | 

Second part, the compound before the results:

Row | SMILES | inhibition at 1000 µM (MAO-A [1]; 10^−3 M) [%] | inhibition at 100 µM (MAO-A [1]; 10^−4 M) [%] | inhibition at 1000 µM (recombinant MAO-B; 10^−3 M) [%] | inhibition at 100 µM (recombinant MAO-B; 10^−4 M) [%] | melting point [°C] | also measured
6 | CN1CCN(c2ccc(C=NNc3nc(-c4ccc(F)cc4)cs3)cc2)CC1 [Compound 3f, 2-{2-[4-(4-Methylpiperazin-1-yl)benzylidene]hydrazinyl}-4-(4-fluorophenyl)thiazole] | 75.9 ± 1.24 | 40.7 ± 0.98 | 30.7 ± 0.912 | 24.7 ± 0.854 | 247 to 249 | 
7 | CN1CCN(c2ccc(C=NNc3nc(-c4ccc(C#N)cc4)cs3)cc2)CC1 [Compound 3d, 2-{2-[4-(4-Methylpiperazin-1-yl)benzylidene]hydrazinyl}-4-(4-cyanophenyl)thiazole] | 90.2 ± 2.04 | 84.4 ± 1.81 | 36.6 ± 0.903 | 26 ± 0.836 | 234 to 235 | inhibition at 10 µM (MAO-A [1]; 10^−5 M): 81.1 ± 1.94%; inhibition at 1 µM (MAO-A [1]; 10^−6 M): 79 ± 1.25%; inhibition at 0.1 µM (MAO-A [1]; 10^−7 M): 49.6 ± 0.811%; inhibition at 0.01 µM (MAO-A [1]; 10^−8 M): 30.6 ± 0.699%; inhibition at 0.001 µM (MAO-A [1]; 10^−9 M): 18.1 ± 0.593%; IC50 (MAO-A [1]): 0.117 ± 0.004 µM
8 | CN1CCN(c2ccc(C=NNc3nc(-c4ccc(F)cc4F)cs3)cc2)CC1 [Compound 3k, 2-{2-[4-(4-Methylpiperazin-1-yl)benzylidene]hydrazinyl}-4-(2,4-difluorophenyl)thiazole] | 80 ± 1.3 | 35.1 ± 0.833 | 29.6 ± 0.782 | 23.2 ± 0.876 | 250 to 251 | 
9 | Cc1ccc(-c2csc(NN=Cc3ccc(N4CCN(C)CC4)cc3)n2)c(C)c1 [Compound 3j, 2-{2-[4-(4-Methylpiperazin-1-yl)benzylidene]hydrazinyl}-4-(2,4-dimethylphenyl)thiazole] | 72.3 ± 1.03 | 38.1 ± 0.798 | 28.1 ± 0.901 | 20 ± 0.792 | 238 to 240 | 
10 | CN1CCN(c2ccc(C=NNc3nc(-c4ccc(Cl)cc4Cl)cs3)cc2)CC1 [Compound 3l, 2-{2-[4-(4-Methylpiperazin-1-yl)benzylidene]hydrazinyl}-4-(2,4-chlorophenyl)thiazole] |  |  |  |  |  | MAO-A % Inhibition (MAO-A [1]; 10^−3 M): 73.521 ± 1.180%; MAO-A % Inhibition (MAO-A [1]; 10^−4 M): 40.578 ± 0.914%; MAO-B % Inhibition (recombinant MAO-B; 10^−3 M): 33.667 ± 0.991%; MAO-B % Inhibition (recombinant MAO-B; 10^−4 M): 21.373 ± 0.769%
11 | C#CCN(C)CCCOc1ccc(Cl)cc1Cl [Clorgiline, clorgiline, reference compound] |  |  |  |  |  | inhibition at 0.001 µM (MAO-A [1]): 22.5 ± 0.736%; inhibition at 0.01 µM (MAO-A [1]): 34.2 ± 0.841%; inhibition at 0.1 µM (MAO-A [1]): 65.2 ± 0.997%; inhibition at 1 µM (MAO-A [1]): 78.5 ± 1.02%; inhibition at 10 µM (MAO-A [1]): 87.6 ± 1.46%
12 | COc1ccc(-c2csc(NN=Cc3ccc(N4CCN(C)CC4)cc3)n2)cc1 [Compound 3c, 2-{2-[4-(4-Methylpiperazin-1-yl)benzylidene]hydrazinyl}-4-(4-methoxyphenyl)thiazole] | 92.1 ± 2.22 | 87.7 ± 1.87 | 30.3 ± 0.812 | 21.5 ± 0.879 | 226 to 228 | inhibition at 10 µM (MAO-A [1]; 10^−5 M): 75.4 ± 1.43%; inhibition at 1 µM (MAO-A [1]; 10^−6 M): 71 ± 1.09%; inhibition at 0.1 µM (MAO-A [1]; 10^−7 M): 48.3 ± 0.869%; inhibition at 0.01 µM (MAO-A [1]; 10^−8 M): 30.9 ± 0.711%; inhibition at 0.001 µM (MAO-A [1]; 10^−9 M): 21.8 ± 0.638%; IC50 (MAO-A [1]): 0.188 ± 0.008 µM
13 | CN1CCN(c2ccc(C=NNc3nc(-c4ccc([N+](=O)[O-])cc4)cs3)cc2)CC1 [Compound 3e, 2-{2-[4-(4-Methylpiperazin-1-yl)benzylidene]hydrazinyl}-4-(4-nitrophenyl)thiazole] | 95.3 ± 1.9 | 90.8 ± 1.73 | 39.1 ± 0.81 | 28.2 ± 0.791 |  | inhibition at 10 µM (MAO-A [1]; 10^−5 M): 85 ± 1.03%; inhibition at 1 µM (MAO-A [1]; 10^−6 M): 82.4 ± 1.39%; inhibition at 0.1 µM (MAO-A [1]; 10^−7 M): 63.9 ± 0.893%; inhibition at 0.01 µM (MAO-A [1]; 10^−8 M): 42.6 ± 0.835%; inhibition at 0.001 µM (MAO-A [1]; 10^−9 M): 23 ± 0.715%; IC50 (MAO-A [1]): 0.057 ± 0.002 µM; inhibition type (MAO-A [2]; Lineweaver-Burk plots): competitive and reversible; also recorded: reversible and competitive; Ki (MAO-A [2]; secondary plot, substrate tyramine, read-out: Ki (steady-state inhibition constant)): 0.011 µM; IC50 (Cytotoxicity MTT assay): > 1000 µM
